Paper PMC12084297, “Cytoplasmic connexin43-microtubule interactions promote glioblastoma stem-like cell maintenance and tumorigenicity” (Cell Death & Disease, 2025)

How the values were obtained:
α-tubulin = assay: Co-immunoprecipitation with α-tubulin antibody: peptide interaction with α-tubulin; format: binding, human; conditions: VTC-037 GSCs, 50 μM, 24 h, cross-linked (DTBP); compared to antennapedia alone or JM2-scrambled; NeutrAvidin-HRP detection
Method: Prior to lysis, cross-linking was completed by incubating cells in DTBP (dimethyl 3,3’-dithiobispropionimidate; 2 mM in PBS) for 30 min at 37 °C followed by a glycine quench (100 mM glycine in PBS) for 15 min at room temperature. Cross-linked samples were lysed in RIPA buffer supplemented with Halt^TM Protease and Phosphatase Inhibitor Cocktail as described above, but without sonication. Co-immunoprecipitation (co-IP) assays were also performed without cross-linking; non-cross-linked samples were lysed using a co-IP lysis buffer (0.5% Triton X-100, 50 mM Tris HCl, 150 mM NaCl, 1 mM EDTA, 1 mM EGTA, 1 mM DTT, 0.1 mM Na3VO4, and 1 mM NaF) supplemented with Halt^TM Protease and Phosphatase Inhibitor Cocktail, without sonication. Protein concentration was quantified using the DC protein assay and a standard curve obtained with increasing concentrations of BSA, and 500 μg of total protein was used per reaction for co-IP. Inputs were removed prior to co-IP and denatured in Bolt LDS sample buffer as described above. Remaining protein lysates were incubated with Protein G Sepharose^TM 4 Fast Flow beads (GE Healthcare) for pre-clearance for 30 min at 4 °C. Samples were incubated with 2 μg of mouse anti-α-tubulin (MilliporeSigma, T6199) for cross-linked samples or mouse anti-Cx43 antibody (EMD Millipore; MAB3067) for non-cross-linked samples for 90 min at 4 °C. […]

VTC-034 GSCs = assay: Gliosphere formation assay, VTC-034 GSCs; format: cell-based, human; conditions: VTC-034, 10, 50 or 100 μM every other day, 2 weeks
Method: GSCs and PDX GBM22 cells were plated as single cell suspension in low-attachment 96-well plates (GSCs: 100–500 cells per well; GBM22 cells: 500–2000 cells per well), using methods similar to those reported previously. Cells were then treated with peptides every other day. 2 weeks later, gliospheres were observed using phase contrast microscopy on a Revolve microscope (Echo Laboratories). The number of gliospheres was then determined, while the gliosphere size was assessed by diameter measurement. To evaluate stem cell frequency in GSCs, gliosphere formation assay was performed with limiting cell dilutions with cells plated at varying densities in low-attachment 96-well plates. Cells were treated with peptides every other day, and after 2 weeks, gliosphere-positive wells were observed and scored using phase contrast microscopy on a Revolve microscope. The stem cell frequency was analyzed using the online data analysis program ELDA (Extreme Limiting Dilution Analysis).

Cx43 [1] = assay: Cx43 protein expression, immunoblot, VTC-001 GSCs; format: cell-based, human; conditions: 50 μM, 24 h
Method: (§1) Cells were lysed in RIPA buffer (0.1% sodium dodecyl sulphate, 50 mM Tris pH 7.4, 150 mM NaCl, 1 mM EDTA, 1% Triton X-100, 1% deoxycholic acid, 200 μM Na3VO4, and 1 mM NaF) supplemented with Halt^TM Protease and Phosphatase Inhibitor Cocktail (Thermo Fisher). Lysates were sonicated prior to centrifugation at 4 °C for 20 min at 10,000 x g. Protein concentration was quantified using the DC protein assay (Bio-Rad Laboratories) and a standard curve obtained with increasing concentrations of Bovine Serum Albumin (BSA; Fisher Scientific). Protein samples were normalized to 20 μg total protein per lane and resolved by SDS-PAGE electrophoresis. 4X Bolt LDS sample buffer supplemented with 400 mM DTT (final concentration 1X Bolt LDS with 100 mM DTT) was added to samples before heating at 70 °C for 10 min. SDS-PAGE was run using NuPAGE Bis-Tris 4%–12% gradient gels (Thermo Fisher) with MES or MOPS running buffer according to manufacturer’s instructions. Spectra™ Multicolor Protein Ladder (Thermo Fisher) or Precision Plus Protein™ Kaleidoscope™ Prestained Protein Standards (Bio-Rad Laboratories) were included as protein ladders on the same gels. […] Membranes were imaged on a ChemiDoc™ imaging system, and analyzed with Image Lab software (Bio-Rad Laboratories). […]

Cx43 [2] = assay: Cx43 protein expression, immunoblot, VTC-037 GSCs; format: cell-based, human; conditions: 50 μM, 24 h
Method: as §1

Q: Which “Interaction of peptide with α-tubulin (co-IP)” value (α-tubulin) does the source give for VFFKGVKDRVKGRSD [JM2] here?
A: Its value is “robustly interacted with α-tubulin”.

Q: What about the GSC-dependent gliosphere formation (VTC-034 GSCs) of the same sequence?
A: Its GSC-dependent gliosphere formation is “inhibits VTC-001, VTC-034, and VTC-037 GSC-dependent gliosphere formation in a dose-dependent manner”.

Q: What about the “Gliosphere size (diameter)” value (VTC-034 GSCs; n = 4) of the same sequence?
A: The value was “significant decrease in gliosphere size”.

Q: What about the Gliosphere number (VTC-034 GSCs; n = 6) of the same sequence?
A: The Gliosphere number was “significant decrease in gliosphere size as assessed by diameter measurement (Fig. 6B), and number”.

Q: What about the Cx43 protein expression (Cx43 [1]) of the same sequence?
A: Its Cx43 protein expression is “without affecting Cx43 expression”.

Q: And the Cx43 protein expression (Cx43 [2])?
A: Its Cx43 protein expression is “without affecting Cx43 expression”.
